Our source for the Ki values is ChEMBL document CHEMBL1124718, “Synthesis and structure-activity relationship of C5-substituted analogues of (+-)-10,11-dihydro-5H-dibenzo[a,d]cyclohepten-5,10-imine [(+-)-desmethyl-MK801]: ligands for the NMDA receptor-coupled phencyclidine binding site” (J Med Chem, 1990).

The target of this test is Glutamate receptor ionotropic, NMDA 1 (Rattus norvegicus, UniProt P35439). As to the kind of experiment: Ability to displace [3H]TCP from high affinity PCP N-methyl-D-aspartate glutamate receptor in rat brain homogenates in vitro was determined. It is filed as tissue-based.

In general, Ki refers to a measure of affinity in units of concentration, obtained from inhibition or displacement. `c1ccc2c(c1)CC1NC2c2ccccc21` (configuration not stated): the Ki turned out to be 120 nM.

With `CCCCCCC12NC(Cc3ccccc31)c1ccccc12` (configuration not stated), the Ki is 980 nM. With `O=C(O)C12NC(Cc3ccccc31)c1ccccc12` (configuration not stated), the Ki was 32300 nM. Under `IC12NC(Cc3ccccc31)c1ccccc12` (configuration not stated) stands 430 nM. For the molecule `NCC12NC(Cc3ccccc31)c1ccccc12` (configuration not stated), the affinity, expressed as Ki, was 117 nM. Next, `COCC12NC(Cc3ccccc31)c1ccccc12` (configuration not stated): 300 nM; `N#CCC12NC(Cc3ccccc31)c1ccccc12` (configuration not stated): 967 nM; `C=CCC12NC(Cc3ccccc31)c1ccccc12` (configuration not stated): 70 nM.

For `OCC12NC(Cc3ccccc31)c1ccccc12` (configuration not stated), affinity was put at a Ki of 40 nM.

In turn, `NC(=O)C12NC(Cc3ccccc31)c1ccccc12` (configuration not stated) registered a Ki of 11300 nM.

For the molecule `BrCC12NC(Cc3ccccc31)c1ccccc12` (configuration not stated), the affinity, expressed as Ki, was 33 nM. Under `CCCCCCCCCCC12NC(Cc3ccccc31)c1ccccc12` (configuration not stated) stands 21600 nM; under `CCCC12NC(Cc3ccccc31)c1ccccc12` (configuration not stated), 1100 nM; under `c1ccc(COCC23NC(Cc4ccccc42)c2ccccc23)cc1` (configuration not stated), 10000 nM. For the molecule `CCC12NC(Cc3ccccc31)c1ccccc12` (configuration not stated), the affinity, expressed as Ki, was 12 nM. Under `NCCC12NC(Cc3ccccc31)c1ccccc12` (configuration not stated) stands 20 nM; under `ClCC12NC(Cc3ccccc31)c1ccccc12` (configuration not stated), 12 nM.
